Experimental data reported in publication PMC6773697, “Antileukemic activity of novel adenosine derivatives” (Scientific Reports, 2019).

Tests used:
[1] = test system: HMEC-1 cells; experiment: XTT cytotoxicity assay, HMEC-1 (normal dermal endothelium); type: cell-based; conditions: Homo sapiens, 48 h incubation, none in the picture
Protocol: (§1) The cytotoxic activity test with XTT (sodium 3′-[1-(phenylaminocarbonyl)- 3,4-tetrazolium]-bis (4-methoxy-6-nitro) benzene sulfonic acid hydrate) is a colorimetric method for determining the parameters associated with cell viability. The cytotoxicity in HL-60, THP-1, MOLT-4, and HMEC-1 cells was measured by the XTT assay. XTT is reduced to formazan by the mitochondrial respiratory chain oxidoreductase, which is active only in living cells. The formed crystals of formazan are dissolved directly in the medium. The amount of product is proportional to the number of live cells.
(§2) The IC50 parameter was determined by dividing the mean absorbance values of the drug-treated samples by those of control cells and defined as the drug concentration causing a 50% reduction of cell viability relative to the control. It was calculated using the “Ed50v10(1)” computer application. Cells were plated in 96-well plates at a density of 15 × 10^3 cells in 100 μL culture medium. Drugs were then added at a concentration range of 10 nM–10,000 nM to obtain a final volume of the mixture of 150 μL. Some cells were preincubated with an ATR kinase inhibitor (VE-821) for 1 h at 37 °C before adding the tested compounds. In this case drugs were added at a concentration range of 10 nM–300 nM. For the XTT assay, after 48 h of incubation, the plates were centrifuged at 1,500 rpm for 10 min at 4 °C, the culture medium was removed, and the cells were suspended in 100 mm^3 of HBSS (Hank’s Buffered Salt Solution) containing 140 mM NaCl, 5 mM KCl, 0.8 mM MgCl2, 1.8 mM CaCl2, 1 mM Na2HPO4, 10 mM HEPES (N- (2-hydroxyethyl) -piperazine-N′- (2-ethanesulfonic acid), and 1% glucose at pH 7.4. Then, 50 μL of XTT solution (in PBS) was added to a final concentration of […]. In addition, PMS (phenazine methosulphate) - methyl dibenzo-N-methylpyrazine sulphate (0.383 mg/cm^3) was used, which was combined with XTT solution at a ratio of 1:50. After 4 h of incubation with XTT, absorbance was measured at a wavelength λ = 450 nm and reference wavelength λ = 690 nm with a microplate reader (BioTek, Winooski, VT, USA).

[2] = test system: leukemic cells (HL-60, MOLT-4, THP-1); experiment: XTT cytotoxicity assay, leukemic cells overall; type: cell-based, human; conditions: for cytotoxicity (in words): XTT, leukemic cell lines
Protocol: as §1, §2

[3] = test system: THP-1 cells; experiment: XTT cytotoxicity assay, THP-1; type: cell-based, human; conditions: Homo sapiens, THP-1; XTT, 48 h incubation, none in the picture
Protocol: as §1, §2

[4] = test system: MOLT-4 cells; experiment: XTT cytotoxicity assay, MOLT-4; type: cell-based, human; conditions: Homo sapiens, MOLT-4; XTT, 48 h incubation, none in the picture
Protocol: as §1, §2

[5] = test system: HL-60 cells; experiment: XTT cytotoxicity assay, HL-60; type: cell-based; conditions: Homo sapiens, 48 h incubation, none in the picture
Protocol: as §1, §2

[6] = test system: γH2AX in HL-60 cells; experiment: H2AX (phospho S139) In-Cell ELISA, HL-60; type: cell-based, human; conditions: HL-60, 48 h, versus control cells
Protocol: The level H2AX protein phosphorylated Ser139 was measured in tested leukemia cells by using of In-Cell ELISA, ICE assay kit. The cells were seeded on 96-well plates (100 × 10^3/well) and 48 h later, incubated with the appropriate compounds. In some experimental variants, cells were preincubated for 1 h with VE-821 (10 µM). The cells were fixed by adding a final concentration of 4% paraformaldehyde solution (10 min, room temperature). After 2 h of Block Solution incubation, cells were treated with a highly specific antibody. A rabbit monoclonal antibody specific to H2AX (phospho S139) was used (at 1:100, 2 h incubation). Next Secondary Antibody Solution (at 1:1000) were added to the cells. The measurements were obtained on a fluorescence plate reader at an excitation wavelength of 680 nm and emission at 694 nm. The cells were PBS washed and 100 µL of Janus Green Stain was added to each well of the plate (5 min., room temperature). The data were collected at excitation wavelength of 750 nm and emission at 800 nm channel (Fluoroskan Cary Eclipse). Antibody signal intensity was normalized to the total amount using Janus Green cell-stain.

[7] = test system: caspase-3/7 in HL-60 cells; experiment: Caspase 3/7 assay, HL-60; type: cell-based, human; conditions: HL-60, 48 h
Protocol: (§3) The activities of caspases-3 and −7 were estimated with CellEvent™ Caspse-3/7 Green Detection Reagent (Thermo Fisher Scientific) according to the manufacturer’s protocol. The cells were seeded on 96-well plates (15 × 10^3/ well) and 24 h later, incubated with the appropriate drugs for 24 h or 48 h. The cells were fixed by adding a final concentration of 4% paraformaldehyde solution (10 min, room temperature). Cells were labeled with CellEvent™Caspase-3/7 Green Detection Reagent (5 µM), followed by Hoechst 33342 (5 µg/ml) for 15 minutes in complete medium3. Caspase-3/7 Green Detection Reagent was diluted into PBS with 5% FBS to avoid fluorescence background. After activation of caspase-3/7 in apoptotic cells, the DEVD peptide was cleaved, enabling the dye to bind DNA, which produced a bright, fluorogenic response with absorption/emission maxima of 502/530 nm according with manufacture protocol. Fluorescence intensity was measured using a Fluoroskan Ascent FL plate reader (Labsystem, Sweden). Cysteine protease activity was expressed as a ratio of fluorescence of the drug-treated samples to the corresponding untreated controls (taken as 100%). In some experimental variants, cells were preincubated for 1 h with VE-821 (10 µM) or Z-FA-FMK (caspas-3 inhibitor, 0.5 µM) to confirm that the fluorescence observed in both control and drug-treated cells was due to the presence of caspase-3/7 in samples. The caspase 3/7 signal was normalized to the Hoechst 33342 staining intensity to account for differences in cell seeding density (description in: Intracellular calcium assay section).

[8] = test system: THP-1 cells; experiment: Comet assay with proteinase K post-treatment (DNA-protein cross-links), THP-1; type: cell-based, human; conditions: THP-1, 24 h
Protocol: (§4) Single cell gel electrophoresis (comet assay) was used to detect alkali labile sites, single and double DNA strand breaks, and cross-links induced by genotoxic agents. After electrophoresis and gel staining with 4,6-diamidino-2-phenylindole (DAPI), the released DNA was visible under a fluorescence microscope as a characteristic comet tail. The cells were plated on 24-well plates (20,000 cells/mL) and treated with CLA, CLA-FMOR, CLA-FPIP, or CLA-FPIR at the indicated concentrations for 2, 24, and 48 h at 37 °C. Some cells were preincubated with an ATR kinase inhibitor (VE-821) for 1 h at 37 °C before adding the tested compounds. Next, cells were collected into Eppendorf tubes and rinsed with PBS. Then, cells were suspended in 0.75% low melting point (LMP) agarose dissolved in PBS (pH 7.4) and placed on microscope slides precoated with 0.5% normal melting point (NMP) agarose. Subsequently, the slides were treated with a cooled lysis buffer (2.5 M NaCl, 100 mM EDTA, 10 mM Tris, 1% Triton X-100, pH 9.0) for 1–24 h at 4 °C. Then, slides were placed in developing buffer (300 mM NaOH, 1 mM EDTA) for 20 min. Electrophoresis was performed in […] (30 mM NaOH, 1 mM EDTA) at 29 V and 30 mA for 20 min. The samples were stained with DAPI ([…]). The slides were stored in a wet chamber at 4 °C and analyzed under a fluorescence microscope. Fifty randomly selected cells from each slide were measured using image analysis (Nikon, Japan) attached to a COHU 4910 video camera, which was equipped with a UV-1 filter block consisting of an excitation filter (359 nm) and a barrier filter (461 nm) connected to the image analysis system Lucia-Comet v. 4.51 (Czech Republic)[41]. In the samples preincubated with VE-821, the level of DNA damage associated with the ATR kinase was determined.
Because cross-links can be undetectable in the alkaline comet assay, a variant of this method including post-treatment with proteinase K (Cat no: P2308) was used. […]

[9] = test system: HL-60 cells; experiment: Comet assay with proteinase K post-treatment (DNA-protein cross-links), HL-60; type: cell-based, human; conditions: HL-60, starting at 2 h of incubation
Protocol: as §4
Because cross-links can be undetectable in the alkaline comet assay, a variant of this method including post-treatment with proteinase K (Cat no: P2308) was used. Proteinase K digests peptide bonds, releasing the cross-linked DNA […] the DNA-protein complexes without altering the structure of the DNA-DNA complexes to distinguish them. After lysis, the slides were washed three times in TE buffer (10 mM Tris, pH 10, 1 mM EDTA). The cells were treated with aliquots of proteinase K (60 µL per slide; 1 mg/mL TE buffer) for 1 h at 37 °C in a wet chamber. Further steps of the comet assay were performed as described above.

[10] = test system: dCK in MOLT-4 cells; experiment: Deoxycytidine kinase activity, MOLT-4; type: cell-based, human; conditions: MOLT-4, 24 h incubation
Protocol: (§5) Deoxycytidine kinase activity was measured in accordance with the manufacturer’s protocol. The cells, at final concentration were plated at 1 × 10^6 cells per 24-well plates and cultured with the tested compounds for 24 h. Some cells were preincubated with an ATR kinase inhibitor (VE-821) for 1 h at 37 °C before adding the tested compounds. After drug treatment, the cells were washed with PBS and resuspended in an ice-cold cytosol extraction buffer containing 1 mM phenylmethylsulfonyl fluoride (PMSF) and a protease inhibitor cocktail. The cell lysate was centrifuged at 10,000 × g for 30 min at 4 °C. The protein concentration was determined using the Bradford method. The supernatant (cytosolic fraction) was collected and stored at −80 °C. The clarified cytoplasm extracts, dCK standards, and blank control were added to the appropriate microtiter plate wells with a biotin-conjugated polyclonal antibody prepared specifically for dCK. Avidin conjugated to horseradish peroxidase (HRP) was added to each microplate well and incubated. Then, a TMB substrate solution was added to the plate. […] The enzyme-substrate reaction was terminated by addition of a sulfuric acid solution. The color change was measured spectrophotometrically at a wavelength of 450 nm using a microplate reader (BioTek).

[11] = test system: dCK in HL-60 cells; experiment: Deoxycytidine kinase activity, HL-60; type: cell-based, human; conditions: HL-60, 24 h incubation
Protocol: as §5

[12] = test system: dCK in THP-1 cells; experiment: Deoxycytidine kinase activity, THP-1; type: cell-based, human; conditions: THP-1, 24 h incubation
Protocol: as §5

[13] = test system: caspase-3/7 in MOLT-4 cells; experiment: Caspase 3/7 assay, MOLT-4; type: cell-based, human; conditions: MOLT-4, 48 h
Protocol: as §3, with “After activation of caspase-3/7 in apoptotic cells, the DEVD peptide was cleaved, enabling the dye to bind DNA, which produced a bright, fluorogenic response with absorption/emission maxima of 502/530 nm according with manufacture protocol.” left out, “The caspase 3/7 signal was normalized to the Hoechst 33342 staining intensity to account for differences in cell seeding density (description in: Intracellular calcium assay section).” left out

[14] = test system: caspase-3/7 in THP-1 cells; experiment: Caspase 3/7 assay, THP-1; type: cell-based, human; conditions: THP-1, 48 h
Protocol: as §3, with “After activation of caspase-3/7 in apoptotic cells, the DEVD peptide was cleaved, enabling the dye to bind DNA, which produced a bright, fluorogenic response with absorption/emission maxima of 502/530 nm according with manufacture protocol.” left out, “The caspase 3/7 signal was normalized to the Hoechst 33342 staining intensity to account for differences in cell seeding density (description in: Intracellular calcium assay section).” left out

For `CN(C)C=Nc1nc(Cl)nc2c1ncn2[C@H]1C[C@H](O)[C@@H](CO)O1` [CLA-FDMF, [6-deamino-6-(N′,N′-dimethyl formamidine)] cladribine], the IC50 [1] was 412 nM, the “cytotoxicity (in words)” value [2] was “low cytotoxicity” and the IC50 [3] was 220 nM. It also gave an IC50 [4] of 220 nM and an IC50 [5] of 184 nM.
`Nc1nc(Cl)nc2c1ncn2[C@H]1C[C@H](O)[C@@H](CO)O1` [CLA, cladribine, reference compound] showed an IC50 [1] of 126 nM, an IC50 [3] of 56 nM and an IC50 [4] of 103 nM. For the same compound, the IC50 [5] was 246 nM and the “increase in γH2AX level” value [6] was ~ 2.4 fold.
With `CN1CCN(C=Nc2nc(Cl)nc3c2ncn3[C@H]2C[C@H](O)[C@@H](CO)O2)CC1` [CLA-FPAZ] the IC50 [1] was 710 nM, the “cytotoxicity (in words)” value [2] was “low cytotoxicity” and the IC50 [3] was 168 nM. For the same compound, the IC50 [4] was 353 nM and the IC50 [5] was 190 nM.
In the case of `OC[C@H]1O[C@@H](n2cnc3c(N=CN4CCCCC4)nc(Cl)nc32)C[C@@H]1O` [CLA-FPIP, [6-deamino-6-(N′, N′-1′, 5′-pentamethylene formamidine)] cladribine], the IC50 [1] is reported as 435 nM, the caspase-3/7 level [7] is reported as “highest changes” and the “DNA damage in the tail after proteinase K” value [8] is reported as “increased”. For the same compound, the “cytotoxicity (in words)” value [2] was “high cytotoxic activity”, the IC50 [3] was 69 nM and the IC50 [4] was 110 nM. The IC50 [5] was 133 nM and the “DNA-protein cross-links after proteinase K” value [9] was “increased the level of cross-links”.
For `CS(=O)(=O)c1ccc(-c2cnc(N)c(C(=O)Nc3ccccc3)n2)cc1` [C+VE-821, reference compound], the dCK activity [10] was “decreased dCK activity”, the dCK activity [11] was “decreased dCK activity” and the dCK activity [12] was “decreased dCK activity”. For the same compound, the “effect of ATR inhibitor on cytotoxicity of CLA and derivatives” value ([2]; 10 μM VE-821 preincubation, XTT 48 h) was “reduces the cytotoxicity of all tested compounds”.
With `OC[C@H]1O[C@@H](n2cnc3c(N=CN4CCCCCC4)nc(Cl)nc32)C[C@@H]1O` [CLA-FHEX] the IC50 [1] was 1080 nM, the “cytotoxicity (in words)” value [2] was “low cytotoxicity” and the IC50 [3] was 172 nM. For the same compound, the IC50 [4] was 348 nM and the IC50 [5] was 647 nM.
`CC(NC(=O)[C@H](Cc1ccccc1)NC(=O)OCc1ccccc1)C(=O)CF` (some centres unmarked) [Z-FA-FMK, reference compound] was tested, and the caspase-3/7 level [13] was “totally prevented caspase activation”, the caspase-3/7 level [7] was “totally prevented caspase activation” and the caspase-3/7 level [14] was “totally prevented caspase activation”.
